# Experimental data: ChEMBL document CHEMBL5108067, “Discovery of Potent OTUB1/USP8 Dual Inhibitors Targeting Proteostasis in Non-Small-Cell Lung Cancer” (J Med Chem, 2022)
# What was measured:
# [1] = system: NCI-H23; assay: Antiproliferative activity against human NCI-H23 cells harboring KRAS mutant incubated for 72 hrs by MTT assay; assay type: functional, cell-based; settings: NCI-H23, 72 h
# [2] = system: NCI-H1975; assay: Antiproliferative activity against human NCI-H1975 cells harboring wild type KRAS incubated for 72 hrs by MTT assay; assay type: functional, cell-based; settings: NCI-H1975, 72 h
# [3] = target: T1, Ubiquitin carboxyl-terminal hydrolase 8 (Homo sapiens) (UniProt P40818); assay: Inhibition of N-terminal His-6 tagged USP8 (734 to 1110 residues) (unknown origin) expressed in Escherichia coli BL21 (DE3) cells at 100 nM measured after 3 hrs by fluorescence based Plate reader method relative to control; settings: values are per cent of control
# T1 sequence (whole entry): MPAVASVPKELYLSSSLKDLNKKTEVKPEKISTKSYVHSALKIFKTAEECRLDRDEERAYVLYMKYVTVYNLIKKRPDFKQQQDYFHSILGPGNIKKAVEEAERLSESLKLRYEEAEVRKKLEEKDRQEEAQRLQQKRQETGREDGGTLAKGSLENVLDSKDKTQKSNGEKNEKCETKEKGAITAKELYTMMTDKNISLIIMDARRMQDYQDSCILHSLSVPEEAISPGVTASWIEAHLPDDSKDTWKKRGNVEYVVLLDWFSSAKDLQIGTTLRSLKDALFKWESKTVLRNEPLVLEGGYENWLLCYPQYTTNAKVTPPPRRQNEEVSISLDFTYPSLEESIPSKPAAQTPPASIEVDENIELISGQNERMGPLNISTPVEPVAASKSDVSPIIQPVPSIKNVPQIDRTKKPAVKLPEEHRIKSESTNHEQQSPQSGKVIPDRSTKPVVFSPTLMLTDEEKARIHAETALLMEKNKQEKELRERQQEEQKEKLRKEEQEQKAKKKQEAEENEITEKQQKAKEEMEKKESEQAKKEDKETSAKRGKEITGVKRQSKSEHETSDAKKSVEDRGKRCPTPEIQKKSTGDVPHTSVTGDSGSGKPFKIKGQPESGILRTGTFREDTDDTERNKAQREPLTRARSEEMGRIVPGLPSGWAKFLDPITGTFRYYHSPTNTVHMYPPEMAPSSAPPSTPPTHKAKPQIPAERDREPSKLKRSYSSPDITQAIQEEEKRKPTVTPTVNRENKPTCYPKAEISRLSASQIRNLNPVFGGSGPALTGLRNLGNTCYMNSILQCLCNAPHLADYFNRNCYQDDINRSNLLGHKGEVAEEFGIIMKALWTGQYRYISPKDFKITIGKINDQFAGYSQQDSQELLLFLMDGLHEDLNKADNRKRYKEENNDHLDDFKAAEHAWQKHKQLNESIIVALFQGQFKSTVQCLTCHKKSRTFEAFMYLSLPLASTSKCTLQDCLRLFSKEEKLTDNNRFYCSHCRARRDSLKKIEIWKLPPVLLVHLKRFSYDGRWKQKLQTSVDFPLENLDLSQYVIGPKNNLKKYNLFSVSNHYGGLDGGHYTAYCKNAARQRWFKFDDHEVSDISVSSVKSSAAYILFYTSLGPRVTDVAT
# [4] = system: EBC-1; assay: Antiproliferative activity against human EBC-1 cells harboring wild type KRAS incubated for 72 hrs by MTT assay; assay type: functional, cell-based; settings: EBC-1, 72 h
# [5] = target: T1, Ubiquitin carboxyl-terminal hydrolase 8 (Homo sapiens); assay: Inhibition of N-terminal His-6 tagged USP8 (734 to 1110 residues) (unknown origin) expressed in Escherichia coli BL21 (DE3) cells at 10 nM measured after 3 hrs by fluorescence based Plate reader method relative to control; settings: values are per cent of control
# [6] = Aqueous solubility of the compound measured after 24 hr by […] LC-MS/MS analysis; assay type: physicochemical; settings: buffer
# [7] = target: T2, Ubiquitin carboxyl-terminal hydrolase 1 (Homo sapiens, UniProt O94782); assay: Inhibition of USP1 (unknown origin) using Ub-Rho measured after 0.5 to 3 hrs
# T2 sequence (O94782 whole entry): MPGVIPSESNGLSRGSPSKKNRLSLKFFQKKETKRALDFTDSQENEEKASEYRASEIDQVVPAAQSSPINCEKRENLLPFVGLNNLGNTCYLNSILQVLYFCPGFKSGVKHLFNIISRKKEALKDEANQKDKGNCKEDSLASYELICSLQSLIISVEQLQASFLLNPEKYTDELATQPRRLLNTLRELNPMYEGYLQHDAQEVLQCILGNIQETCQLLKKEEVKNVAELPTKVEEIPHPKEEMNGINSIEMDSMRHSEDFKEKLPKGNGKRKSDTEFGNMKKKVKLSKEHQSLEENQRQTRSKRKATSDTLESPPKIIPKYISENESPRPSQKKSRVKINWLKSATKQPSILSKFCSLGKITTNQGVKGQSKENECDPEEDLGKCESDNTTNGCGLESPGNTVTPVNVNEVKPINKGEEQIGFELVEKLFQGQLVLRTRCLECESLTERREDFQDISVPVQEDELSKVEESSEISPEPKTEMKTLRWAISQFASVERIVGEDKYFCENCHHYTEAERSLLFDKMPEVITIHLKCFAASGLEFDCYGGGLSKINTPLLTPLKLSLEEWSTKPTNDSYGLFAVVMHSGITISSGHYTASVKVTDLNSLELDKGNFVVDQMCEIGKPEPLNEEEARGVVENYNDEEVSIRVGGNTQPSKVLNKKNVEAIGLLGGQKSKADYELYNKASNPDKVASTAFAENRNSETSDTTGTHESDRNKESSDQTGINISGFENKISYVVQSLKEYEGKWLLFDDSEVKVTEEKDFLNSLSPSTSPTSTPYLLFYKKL
# [8] = target: T3, Ubiquitin carboxyl-terminal hydrolase 2 (Homo sapiens, UniProt O75604); assay: Inhibition of USP2 (unknown origin) using Ub-Rho measured after 0.5 to 3 hrs
# T3 sequence (O75604 whole entry): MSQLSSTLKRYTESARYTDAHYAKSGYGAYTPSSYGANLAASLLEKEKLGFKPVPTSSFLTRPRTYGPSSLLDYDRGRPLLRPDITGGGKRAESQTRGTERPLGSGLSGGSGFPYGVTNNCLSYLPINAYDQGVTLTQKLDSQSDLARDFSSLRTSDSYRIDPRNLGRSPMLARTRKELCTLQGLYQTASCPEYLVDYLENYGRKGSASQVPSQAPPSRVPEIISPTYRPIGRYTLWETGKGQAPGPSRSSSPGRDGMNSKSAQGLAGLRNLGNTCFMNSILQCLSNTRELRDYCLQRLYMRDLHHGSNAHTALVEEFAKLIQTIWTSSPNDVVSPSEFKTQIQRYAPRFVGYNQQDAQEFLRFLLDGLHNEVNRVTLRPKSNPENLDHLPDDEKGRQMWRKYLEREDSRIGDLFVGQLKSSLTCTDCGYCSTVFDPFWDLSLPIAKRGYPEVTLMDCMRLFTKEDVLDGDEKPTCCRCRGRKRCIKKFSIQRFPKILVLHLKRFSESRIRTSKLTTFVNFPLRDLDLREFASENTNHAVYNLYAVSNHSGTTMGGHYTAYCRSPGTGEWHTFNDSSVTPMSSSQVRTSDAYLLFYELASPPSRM
SMILES,IC50 [1] [µM],IC50 [2] [µM],residual activity [3] [%],IC50 [4] [µM],residual activity [5] [%],solubility [6],IC50 [7] [µM],IC50 [8] [µM]
CN1CC[C@@H](Oc2ccc(F)c(-c3nc4c(o3)C(=O)c3ccccc3C4=O)c2Cl)C1,0.431,0.118,16.5,0.172,21.7,Soluble,1.37,3.8
CN1CC[C@@H](Oc2ccc(Cl)c(-c3nc4c(o3)C(=O)c3ccccc3C4=O)c2)C1,0.266,0.088,25,0.138,35.8,Soluble,1.9,6.2
O=C1c2ccccc2C(=O)c2oc(-c3cccnc3)nc21,0.281,0.098,32.2,0.122,43.4,–,0.99,5.1
CN1CC[C@@H](Oc2ccc(Cl)c(-c3nc4c(o3)C(=O)c3ccccc3C4=O)c2F)C1,0.423,0.121,20.5,0.176,37.2,Soluble,2.1,> 10
